Experimental data taken from patent publication US9409884B2 (Rigel Pharmaceuticals, Inc., priority 2012, dated 2016).

target: AMPK; experiment: AMPK activation, enzyme-linked immunosorbent assay; type: biochemical; details: Table 8, compounds of Table 1
Procedure, shortened: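 AMPK activation by test compounds was measured by enzyme-linked immunosorbent assay.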

EC50	SMILES
1 to 5 µM	O=C(NC1CCN(Cc2c[nH]cn2)CC1)c1ccc(OC2CCN(c3ccc(C(F)(F)F)cc3)CC2)cn1 [Compound 1-48, N-(1-((1H-imidazol-4-yl)methyl)piperidin-4-yl)-5-(1-(4-(trifluoromethyl)phenyl)piperidin-4-yloxy)picolinamide]
< 0.1 µM	Cc1c(C(=O)NC2CCN(Cc3ccc(C#N)cc3)CC2)oc2cc(OC3CCN(c4ccc(C(F)(F)F)cc4)CC3)ccc12 [Compound 1-64, N-(1-(4-cyanobenzyl)piperidin-4-yl)-3-methyl-6-(1-(4-(trifluoromethyl)phenyl)piperidin-4-yloxy)benzofuran-2-carboxamide]
0.1 to 0.5 µM	FC(F)(F)c1ccc(N2CCC(Oc3ccc4c(c3)CCC4NC3CCN(Cc4ccncc4)CC3)CC2)cc1 (stereo not drawn) [Compound 1-158, 1-(pyridin-4-ylmethyl)-N-(5-(1-(4-(trifluoromethyl)phenyl)piperidin-4-yloxy)-2,3-dihydro-1H-inden-1-yl)piperidin-4-amine]
< 0.1 µM	O=C(NC1CCN(C(=O)c2ccncc2)CC1)c1sc2cc(OC3CCN(c4ccc(C(F)(F)F)cc4)CC3)ccc2c1Cl [Compound 1-155, 3-chloro-N-(1-isonicotinoylpiperidin-4-yl)-6-(1-(4-(trifluoromethyl)phenyl)piperidin-4-yloxy)benzo[b] thiophene-2-carboxamide]
1 to 5 µM	O=C(N[C@H]1CCN(Cc2cccnc2)C1)c1cc2cc(OC3CCN(Cc4ccc(Cl)cc4)CC3)ccc2o1 [Compound 1-130, (S)-5-(1-(4-chlorobenzyl)piperidin-4-yloxy)-N-(1-(pyridin-3-ylmethyl)pyrrolidin-3-yl)benzofuran-2-carboxamide]
< 0.1 µM	N#Cc1ccc(CN2CCC(NC(=O)c3cc(OC4CCN(c5ccc(C(F)(F)F)cc5)CC4)ccn3)CC2)cc1 [Compound 1-28, N-(1-(4-cyanobenzyl)piperidin-4-yl)-4-(1-(4-(trifluoromethyl)phenyl)piperidin-4-yloxy)picolinamide]
0.5 to 1 µM	N#Cc1cccc(CN2CCC(NS(=O)(=O)c3ccc(OC4CCN(c5ccc(C(F)(F)F)cc5)CC4)nc3)CC2)c1 [Compound 1-57, N-(1-(3-cyanobenzyl)piperidin-4-yl)-6-(1-(4-(trifluoromethyl)phenyl)piperidin-4-yloxy)pyridine-3-sulfonamide]
< 0.1 µM	N#Cc1ccc(CN2CCC(NC(=O)c3cc4cc(OC5CCN(Cc6cnn(-c7ccc(C#N)cc7)c6)CC5)ccc4o3)CC2)cc1 [Compound 1-162, N-(1-(4-cyanobenzyl)piperidin-4-yl)-5-(1-((1-(4-cyanophenyl)-1H-pyrazol-4-yl)methyl)piperidin-4-yloxy)benzofuran-2-carboxamide]

same assay, conditions: Table 9, compounds of Table 2

EC50	SMILES
10 to 50 µM	N#Cc1ccc(CN2CCC(NC(=O)c3ccc4[nH]c5c(c4c3)CN(S(=O)(=O)c3ccc(C#N)cc3)CC5)CC2)cc1 [Compound 2-25, N-(1-(4-cyanobenzyl)piperidin-4-yl)-2-(4-cyanophenylsulfonyl)-2,3,4,5-tetrahydro-1H-pyrido[4,3-b]indole-8-carboxamide]
1 to 5 µM	N#Cc1ccc(CN2CCC(NC(=O)c3ccc4[nH]c5c(c4c3)CN(C(=O)OCc3ccccc3)CC5)CC2)cc1 [Compound 2-1, benzyl 8-(1-(4-cyanobenzyl)piperidin-4-ylcarbamoyl)-3,4-dihydro-1H-pyrido[4,3-b]indole-2(5H)-carboxylate]
0.5 to 1 µM	O=C(NC1CCN(S(=O)(=O)c2cccnc2)CC1)c1ccc2[nH]c3c(c2c1)CN(Cc1ccc(C(F)(F)F)cc1)CC3 [Compound 2-22, N-(1-(pyridin-3-ylsulfonyl)piperidin-4-yl)-2-(4-(trifluoromethyl)benzyl)-2,3,4,5-tetrahydro-1H-pyrido[4,3-b]indole-8-carboxamide]
< 0.5 µM	O=C(NC1CCN(Cc2cocn2)CC1)c1ccc2[nH]c3c(c2c1)CN(Cc1ccc(C(F)(F)F)cc1)CC3 [Compound 2-54, N-(1-(oxazol-4-ylmethyl)piperidin-4-yl)-2-(4-(trifluoromethyl)benzyl)-2,3,4,5-tetrahydro-1H-pyrido[4,3-b]indole-8-carboxamide]
1 to 5 µM	N#Cc1ccc(CN2CCC(NC(=O)c3ccc4[nH]c5c(c4c3)CN(Cc3ccccc3)CC5)CC2)cc1 [Compound 2-4, 2-benzyl-N-(1-(4-cyanobenzyl)piperidin-4-yl)-2,3,4,5-tetrahydro-1H-pyrido[4,3-b]indole-8-carboxamide]
0.5 to 1 µM	CC(C)(C)OC(=O)N1CCC(NC(=O)c2ccc3[nH]c4c(c3c2)CN(Cc2ccc(C(F)(F)F)cc2)CC4)CC1 [Compound 2-6, tert-butyl 4-(2-(4-(trifluoromethyl)benzyl)-2,3,4,5-tetrahydro-1H-pyrido[4,3-b]indole-8-carboxamido)piperidine-1-carboxylate]

same assay, conditions: Table 10, compounds of Table 3

EC50	SMILES
< 0.1 µM	O=C(NC1CCN(Cc2ccncc2)CC1)c1nc2ccc(OC3CCN(c4ccc(C(F)(F)F)cc4)CC3)cc2o1 [Compound 3-3, N-(1-(pyridin-4-ylmethyl)piperidin-4-yl)-6-(1-(4-(trifluoromethyl)phenyl)piperidin-4-yloxy)benzo[d]oxazole-2-carboxamide]
1 to 10 µM	CC(C)(C)OC(=O)N1CCC(NC(=O)c2nc3ccc(OC4CCN(c5ccc(C(F)(F)F)cc5)CC4)cc3s2)CC1 [Compound 3-14, tert-butyl 4-(6-(1-(4-(trifluoromethyl)phenyl)piperidin-4-yloxy)benzo[d]thiazole-2-carboxamido)piperidine-1-carboxylate]

same assay, conditions: Table 11, compounds of Table 4

EC50	SMILES
1 to 5 µM	CCNS(=O)(=O)c1ccc(CN2CCN(C(=O)c3ccc(C(=O)NC4CCN(Cc5ccc(C#N)cc5)CC4)cn3)CC2)cc1 [Compound 4-17, N-(1-(4-cyanobenzyl)piperidin-4-yl)-6-(4-(4-(N-ethylsulfamoyl)benzyl)piperazine-1-carbonyl)nicotinamide]
0.5 to 1 µM	N#Cc1ccc(CN2CCC(NC(=O)c3ccc(C(=O)N4CCN(c5ccc(S(=O)(=O)N6CCCC6)cc5)CC4)nc3)CC2)cc1 [Compound 4-9, N-(1-(4-cyanobenzyl)piperidin-4-yl)-6-(4-(4-(pyrrolidin-1-ylsulfonyl)phenyl)piperazine-1-carbonyl)nicotinamide]

same assay, conditions: Table 12, compounds of Table 5

EC50	SMILES
10 to 20 µM	COc1ccc(CN2CCC(Oc3ccc(C(=O)NCCCN4CCOCC4)cc3Cl)CC2)cc1 [Compound 5-101, 3-chloro-4-(1-(4-methoxybenzyl)piperidin-4-yloxy)-N-(3-morpholinopropyl)benzamide]
< 1 µM	COc1cc(C(=O)NC2CCN(Cc3ccccc3)CC2)ccc1OC1CCN(Cc2ccccc2)CC1 [Compound 5-2, N-(1-benzylpiperidin-4-yl)-4-(1-benzylpiperidin-4-yloxy)-3-methoxybenzamide]

same assay, conditions: Table 13, compounds of Table 6

EC50	SMILES
< 0.1 µM	COc1ccc(CN2CCC(NC(=O)c3cc4cc(C(=O)N5CCN(Cc6ccc(S(=O)(=O)N7CCCC7)cc6)CC5)ccc4o3)CC2)cc1F [Compound 6-160, N-(1-(3-fluoro-4-methoxybenzyl)piperidin-4-yl)-5-(4-(4-(pyrrolidin-1-ylsulfonyl)benzyl)piperazine-1-carbonyl)benzofuran-2 - carboxamide]
< 0.1 µM	O=C(Nc1ccc(Oc2ccc(F)cc2)nc1)c1cc2cc(CN3CCC(Oc4ccc(C(F)(F)F)cc4)CC3)ccc2o1 [Compound 6-29, N-(6-(4-fluorophenoxy)pyridin-3-yl)-5-((4-(4-(trifluoromethyl)phenoxy)piperidin-1-yl)methyl) benzofuran-2-carboxamide]
0.1 to 1 µM	CS(=O)(=O)c1ccc(CN2CCN(C(=O)c3ccc4cc(C(=O)NC5CCN(Cc6ccc(C#N)cc6)CC5)oc4c3)CC2)cc1 [Compound 6-2, N-(1-(4-cyanobenzyl)piperidin-4-yl)-6-(4-(4-(methylsulfonyl)benzyl)piperazine-1-carbonyl) benzofuran-2-carboxamide]
1 to 10 µM	COc1ccc(CN2CCC(C(=O)Nc3ccc4oc(C(=O)NC5CCN(Cc6ccc(C#N)cc6)CC5)cc4c3)CC2)cc1 [Compound 6-40, N-(2-(1-(4-cyanobenzyl)piperidin-4-ylcarbamoyl)benzofuran-5-yl)-1-(4-methoxybenzyl)piperidine-4-carboxamide]
0.1 to 1 µM	CS(=O)(=O)c1ccc(CN2CCN(C(=O)c3ccc4oc(C(=O)NC5CCN(Cc6ccc(OC(F)(F)F)c(Cl)c6)CC5)cc4c3)CC2)cc1 [Compound 6-158, N-(1-(3-chloro-4-(trifluoromethoxy)benzyl)piperidin-4-yl)-5-(4-(4-(methylsulfonyl)benzyl)piperazine-1-carbonyl) benzofuran-2-carboxamide]
< 0.1 µM	N#Cc1ccc(CN2CCC(NC(=O)c3cc4cc(NC(=O)C5CCN(c6ccc(C#N)cn6)CC5)ccc4o3)CC2)cc1 [Compound 6-70, N-(2-(1-(4-cyanobenzyl)piperidin-4-ylcarbamoyl)benzofuran-5-yl)-1-(5-cyanopyridin-2-yl)piperidine-4-carboxamide]

same assay, conditions: Table 14, compounds of Table 7

EC50	SMILES
< 1 µM	N#Cc1ccc(CN2CCC(NC(=O)c3ccc(C(=O)N4CCC(C(=O)c5ccc(N6CCCC6)cc5)CC4)nc3)CC2)cc1F [Compound 7-117, N-(1-(4-cyano-3-fluorobenzyl)piperidin-4-yl)-6-(4-(4-(pyrrolidin-1-yl)benzoyl)piperidine-1-carbonyl)nicotinamide]
10 to 20 µM	CS(=O)(=O)c1ccc(CN2CCN(c3ccc(C(=O)NC4CCN(Cc5ccc(C#N)cc5)CC4)cn3)CC2)cc1 [Compound 7-79, N-(1-(4-cyanobenzyl)piperidin-4-yl)-6-(4-(4-(methylsulfonyl)benzyl)piperazin-1-yl)nicotinamide]
< 1 µM	Cc1cc(OC2CCN(C(=O)c3ccc(C(=O)NC4CCN(Cc5ccc(OC(F)(F)F)cc5)C[C@H]4F)cn3)CC2)ccc1S(C)(=O)=O (stereo partly drawn) [Compound 7-47, N-((3,4-trans)-3-fluoro-1-(4-(trifluoromethoxy)benzyl)piperidin-4-yl)-6-(4-(3-methyl-4-(methylsulfonyl)phenoxy)piperidine-1-carbonyl) nicotinamide]
< 1 µM	COc1ccc(CN2CCC(NC(=O)c3ccc(C(=O)N4CCC(Oc5ccc6sc(C)nc6c5)CC4)nc3)CC2)cc1 [Compound 7-24, N-(1-(4-methoxybenzyl)piperidin-4-yl)-6-(4-(2-methylbenzo[d]thiazol-5-yloxy)piperidine-1-carbonyl)nicotinamide]
